“Also recorded” adds a separate entry of the source. Read-outs that look alike come from different tables or passages of the source.

What is called EC50 is the midpoint of the concentration-response curve.

Experiment [1] relates to bloodstream form T. brucei. Nature of the experiment: Growth inhibition of wild type / control bloodstream form T. brucei (resazurin). Type of experiment: cell-based. The following applies: for EC50: Trypanosoma brucei. Background: Alamar Blue is a resazurin reagent that responds to reducing activity.
For experiment [2], the system named is differentiated THP‐1 cells. Nature of the experiment: Mammalian inhibition assay, differentiated THP-1 cells. The class given is cell-based. The following applies: Homo sapiens, 72 h; differentiated THP‐1 cells, 3 days; read-out: THP‐1 EC50.
Experiment [3] relates to T. brucei over expressing TbCPR2 (Tbcpr2++). Nature of the experiment: microbe, parasite or virus in culture. The class given is cell-based.
Experiment [4] has as its system T. cruzi epimastigotes. In words: Growth inhibition of T. cruzi epimastigotes (resazurin). Type of experiment: cell-based. The following applies: for EC50: Trypanosoma cruzi, 336 h, epimastigotes, 14 days, read-out: T. cruzi EC50.
In experiment [5] the test system is RH1^RC1 T. brucei. In words: microbe, parasite or virus in culture. The class given is cell-based.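 For ratio (fold difference in EC50 between RH1^RC1 and wild type): resistant clone selected by stepwise exposure to the aziridinyl benzoquinone prodrug in culture.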
The subject of experiment [6] is T. brucei Tbsnm1 null mutants (ΔTbsnm1). In words: microbe, parasite or virus in culture. The class given is cell-based. The following applies: for EC50: Trypanosoma brucei, read-out: EC50 ΔTbsnm1.
Experiment [7] relates to T. brucei over expressing TbNTR (Tbntr++). Nature of the experiment: microbe, parasite or virus in culture. The following applies: for EC50: Trypanosoma brucei, read-out: EC50 Tbntr++. Type of experiment: cell-based.
For experiment [8], the system named is mouse peritoneal macrophages. Nature of the experiment: Toxicity to mouse peritoneal macrophages (cell counts, Giemsa). Type of experiment: cell-based, BALB/c mice. The following applies: Peritoneal macrophage, 120 h, non‐cancerous primary cells, up to 5 days, read-out: EC50 towards mouse peritoneal macrophages.
The subject of experiment [9] is L. major promastigotes. In words: Growth inhibition of L. major promastigotes (resazurin). The following applies: for EC50: Leishmania major, 144 h, promastigotes, 6 days, read-out: L. major EC50. Type of experiment: cell-based.
Experiment [10] concerns ΔTbsnm1 Tbcpr2++ T. brucei. Type of experiment: cell-based.
In experiment [11] the test system is differentiated THP‐1 cells. The following applies: read-out: THP‐1 EC50, ref Voak et al., 2013; cited from earlier work.
Setting [12] is: Table 3, BSF T. brucei wild type, read-out: EC50 Wild type.
[13] abbreviates: Table 4, wild type T. brucei, read-out: EC50 Control.

Regarding `O=C1C(N2CC2)=C(N2CC2)C(=O)C(N2CC2)=C1N1CC1` [ABQ22], the “T. brucei SI” value in [1] (Selectivity Index: fold difference in EC50 of THP‐1 line relative to parasite) was determined as 1. In addition, the EC50 was determined as 148 ± 1 nM in experiment [1] (72 h, bloodstream form, 3 days, Table 1, activity of some compounds previously reported (Hall et al., 2012), read-out: T. brucei EC50); 138 ± 25 nM in [1] (Table 2, parasites expressing wild type levels, read-out: EC50 Control); 197 ± 31 nM in experiment [1] (setting [12]); 138 ± 25 nM in [1] (setting [13]); 138 ± 25 nM in experiment [2]; 20 nM in experiment [3] (Trypanosoma brucei, read-out: EC50 Tbcpr2++). Further, the 50% effective concentration (EC50) in [4] was 55 ± 2 nM; in [5] (Trypanosoma brucei, read-out: EC50 RH1^RC1), 232 ± 27 nM; in experiment [6] it was 21 ± 5 nM; in experiment [7], 148 nM; in experiment [8], 120 nM; in experiment [9], 218 ± 20 nM. In addition, the “Fold difference in EC50 Tbcpr2++ relative to control” value in experiment [3] is reported as 20 ± 3 (0.14 ). In experiment [3], the “Susceptibility of TbCPR2 or 3 over expressing lines relative to control cells” value was “hypersensitive; also recorded: sevenfold”. The “T. cruzi SI” value in [4] was determined as 3. In addition, in experiment [5], the “Susceptibility of RH1 selected (RH1^RC) lines relative to wild type” value is on record as “equally sensite”. Also, the “ratio (fold difference in EC50 between RH1^RC1 and wild type)” value in experiment [5] was found to be 1.2. Further, the “Ratio of EC50 values ΔTbsnm1 / control” value in experiment [6] is given as 0.15. In addition, in experiment [6], the “Susceptibility of Tbsnm1 null mutants relative to wild type / control (fold more susceptible)” value was “sevenfold”. Besides, the “Fold difference in EC50 Tbntr++ relative to control” value in experiment [7] was 148 ± 9 (1.07). The “L. major SI” value in experiment [9] is reported as 1. Also, the “Fold more sensitive, ΔTbsnm1 Tbcpr2++ versus wild type” value in experiment [10] stood at 12.5 fold.
Regarding `CC1CS(=O)(=O)CCN1/N=C/c1ccc([N+](=O)[O-])o1` (stereo not shown) [Nifurtimox, reference compound], the EC50 in experiment [1] (setting [12]) was 2700 ± 100 nM; in [1] (setting [13]), 2850 ± 20 nM; in experiment [1] (read-out: EC50 Control) it was 2980 ± 30 nM; in experiment [4] it was 2600 ± 400 nM; in experiment [11], over 100000 nM; in experiment [6] it was 2250 ± 90 nM. Also, the figures for the EC50 in [7] and in experiment [9] were 315 nM and 6280 ± 40 nM, respectively.

Source of the values: article PMC5656836, “Distinct activation mechanisms trigger the trypanocidal activity of DNA damaging prodrugs” (Molecular Microbiology, 2017).
